{"source": "patent US20250345333A1", "about": "“THERAPIES WITH PPAR AGONISTS AND FGFR4 INHIBITORS” (TYRA BIOSCIENCES, INC., priority 2022, published 2025)", "key": {"[1]": {"test_system": "serum C4 (7-alpha-hydroxy-4-cholestene-3-one)", "assay": "Serum C4 in C57BL/6 mice dosed orally", "experimental": "For the in vivo experiments, male C57BL/6 mice were dosed orally with vehicle, fenofibrate, an FGFR4 inhibitor, or with a combination of fenofibrate and an FGFR4 inhibitor at the doses indicated. Before the final day of the study, animals were fasted overnight and serum was collected 4 hours after the final dose. Serum C4 (7-alpha-hydroxy- 4-cholestene-3-one) analyses were carried out on an Agilent 6495 triple quadrupole mass spectrometer with jet stream source coupled to an Agilent 1290 UPLC stack. Data was processed using Waters TargetLynx data processing software. Calibration curves were generated using reference standard (7A4C; Sigma-Aldrich). Calibration range was from 0.5ng/ml-200 ng/ml with an internal deuterated standard (7A4C-D7; Avanti Polar Lipids) concentration of 100 ng/ml. […] When combination treatments were tested, the vehicle treatment groups received both vehicles, formulated separately. In the combination treatment groups, the compounds were formulated and dosed separately. The mean C4 value for each group of 4 mice is shown, and error bars represent standard error of the mean."}, "[2]": {"test_system": "CYP7A1 expression in Hep3B cells", "assay": "CYP7A1 mRNA expression (qPCR, relative to Actin) in Hep3B cells", "protocol": "(§1) Fenofibrate or fenofibric acid was applied at a concentration of 2, 5, and 10 μM added simultaneously in combination with 30 nM of BLU-554 in growth media (DMEM supplemented with 10% Fetal Bovine Serum), for 18 hours. mRNA was then isolated and CYP7A1 expression was measured using TaqMan™ qPCR Assays (CYP7A1 assay ID: Hs00167982_m1, ACTNB assay ID: Hs99999903_m1).\n(§2) Hep3B and HUH-7 cells were treated with 10 μg/ml mouse Isotype monoclonal IgG control (R&D-MAB002), or 2 μg/ml, 5 μg/ml, and 10 μg/ml of hFGF19 Antibody (R&D-AF969) for 24 hours. mRNA was then isolated and CYP7A1 expression was measured using qPCR. The depicted data represent the fold change in CYP7A1 mRNA levels compared to vehicle (DMSO) treated cells, and Actin was used as internal control.\n(§3) Hep3B and HUH-7 cells were treated with 10 μg/ml of hFGF19 Antibody (R&D-AF969) in combination with 2 μM, 5 μM, or 10 μM of fenofibrate, for 24 hours. Two control groups included; untreated cells, and cell treated with 10 μg/ml mouse Isotype monoclonal IgG (R&D-MAB002), for 24 hours."}, "[3]": {"test_system": "Cyp7a1 mRNA expression in mouse livers", "assay": "Liver Cyp7a1 mRNA expression in mice", "experimental": "For the in vivo experiments, male C57BL/6 mice were dosed orally with vehicle, fenofibrate, an FGFR4 inhibitor, or with a combination of fenofibrate and an FGFR4 inhibitor at the doses indicated. Before the final day of the study, animals were fasted overnight and serum was collected 4 hours after the final dose. Serum C4 (7-alpha-hydroxy- 4-cholestene-3-one) analyses were carried out on an Agilent 6495 triple quadrupole mass spectrometer with jet stream source coupled to an Agilent 1290 UPLC stack. Data was processed using Waters TargetLynx data processing software. Calibration curves were generated using reference standard (7A4C; Sigma-Aldrich). Calibration range was from 0.5ng/ml-200 ng/ml with an internal deuterated standard (7A4C-D7; Avanti Polar Lipids) concentration of 100 ng/ml. The vehicle for fenofibrate, FGF401 and H3B-6527 was 0.5% methylcellulose/0.5% tween 80 (MC/Tween), and the vehicle for BLU554 was 80% PEG400/4% hydroxypropyl-β-cyclodextrin (HPBCD). When combination treatments were tested, the vehicle treatment groups received both vehicles, formulated separately. In the combination treatment groups, the compounds were formulated and dosed separately."}, "[4]": {"test_system": "serum C4 (7-alpha-hydroxy-4-cholestene-3-one)", "assay": "Serum C4 in athymic nude mice carrying HuH-7 tumors", "assay_type": "in vivo", "conditions": "14 days; for serum C4 levels: HuH-7 tumor-bearing mice, inhibitor alone: BLU554 100 mg/kg BID, FGF401 30 or 100 mg/kg BID"}, "[5]": {"test_system": "CYP7A1 expression in HuH-7 cells", "assay": "CYP7A1 mRNA expression (qPCR, relative to Actin) in HuH-7 cells", "protocol": "as §1, §2, §3"}, "[6]": {"test_system": "serum C4 (7-alpha-hydroxy-4-cholestene-3-one)", "assay": "Serum C4 in athymic nude (Nu/Nu) mice", "assay_type": "in vivo", "conditions": "FGF401 at 30 mg/kg, H3B-6527 at 300 mg/kg"}, "[7]": {"test_system": "bile acid (BA) levels", "assay": "Bile acid levels in liver, plasma and gallbladder of athymic nude mice", "conditions": "oral, BID, 3 weeks; H3B-6527 300 mg/kg, FGF401 30 mg/kg; 4 hours after final dose; vs vehicle", "experimental": "FIGS. 14A-14C are bar graphs depicting changes in bile acid (BA) levels (fold change over control) in liver (FIG. 14A), plasma (FIG. 14B), and gallbladder (FIG. 14C) of athymic nude (Nu/Nu) mice treated orally with vehicle ((1) 0.5% MC/tween), H3B-6527 ((2) 300 mg/kg, BID), or FGF401/Roblitinib ((3) 30 mg/kg, BID), for 3 weeks. Four hours after the final dose, mice were euthanized and plasma, liver and gallbladder samples were collected, and bile acid levels measured.\nFIGS. 14A-14C are bar graphs depicting changes of bile acid (BA) levels (fold change over control) in liver (FIG. 14A), plasma (FIG. 14B), and gallbladder (FIG. 14C) of athymic nude (Nu/Nu) mice treated orally with vehicle (0.5% MC/tween), H3B-6527 (300 mg/kg, BID), or FGF401/Roblitinib (30 mg/kg, BID), for 3 weeks. Four hours after the final dose, mice were euthanized and plasma, liver and gallbladder samples were collected and bile acid levels measured. Bile acids were measured at the metabolomics core facility of University of Kansas Medical Center, following an established protocol."}}, "note": "Like-named read-outs stand apart in the source and are kept apart here.", "data": [{"molecule": "C=CC(=O)N[C@H]1CCOC[C@H]1Nc1ncc2cc(-c3c(Cl)c(OC)cc(OC)c3Cl)ccc2n1", "note": "[BLU-554, fisogatinib]", "values": [{"measurement": "levels of serum C4", "setting": "[1]; C57BL/6 mice, BLU554 at 100 mg/kg", "result": "increases in levels of serum C4"}, {"measurement": "CYP7A1 expression (Relative mRNA expression/Actin)", "setting": "[2]", "result": "increased CYP7A1 expression"}, {"measurement": "liver Cyp7a1 mRNA expression (% Actb)", "setting": "[3]; BLU-554 (100 mg/kg) alone", "result": "Cyp7a1 upregulation"}, {"measurement": "serum C4 levels", "setting": "[4]", "result": "significantly raised levels"}, {"measurement": "CYP7A1 expression (Relative mRNA expression/Actin)", "setting": "[5]", "result": "increased CYP7A1 expression"}]}, {"molecule": "C=CC(=O)Nc1cc(N2CCN(CC)CC2)ccc1Nc1cc(N(C)C(=O)Nc2c(Cl)c(OC)cc(OC)c2Cl)ncn1", "note": "[H3B-6527]", "values": [{"measurement": "levels of serum C4", "setting": "[6]", "result": "increases in levels of serum C4"}]}, {"molecule": "CC(C)OC(=O)C(C)(C)Oc1ccc(C(=O)c2ccc(Cl)cc2)cc1", "note": "[fenofibrate]", "values": [{"measurement": "serum C4 levels", "setting": "[1]; different doses of fenofibrate in combination with BLU-554 (100 mg/Kg), 6 days", "result": "reduced the increase in C4 caused by BLU554"}, {"measurement": "liver Cyp7a1 mRNA expression (% Actb)", "setting": "[3]; fenofibrate co-administered with BLU-554 (100 mg/kg)", "result": "reversed BLU-554-induced Cyp7a1 upregulation in mouse livers, in a dose dependent manner"}, {"measurement": "rise in serum C4", "setting": "[4]; fenofibrate 40 mg/kg QD plus BLU554 100 mg/kg BID", "result": "significantly attenuated the rise in C4"}, {"measurement": "rise in serum C4", "setting": "[4]; fenofibrate 40 mg/kg QD plus FGF401 30 mg/kg BID", "result": "attenuated the rise in C4"}]}, {"molecule": "COc1cc(OC)cc(N(CCNC(C)C)c2ccc3ncc(-c4cnn(C)c4)nc3c2)c1", "note": "[erdafitinib]", "values": [{"measurement": "CYP7A1 expression (Relative mRNA expression/Actin)", "setting": "[2]", "result": "increased CYP7A1 expression"}, {"measurement": "CYP7A1 expression (Relative mRNA expression/Actin)", "setting": "[5]", "result": "increased CYP7A1 expression"}]}, {"molecule": "C=CC(=O)N1CC[C@H](n2nc(C#Cc3cc(OC)cc(OC)c3)c3c(N)ncnc32)C1", "note": "[futibatinib]", "values": [{"measurement": "CYP7A1 expression (Relative mRNA expression/Actin)", "setting": "[2]; Hep3B cells, increasing concentrations of inhibitor alone, 18 hours", "result": "increased CYP7A1 expression"}, {"measurement": "CYP7A1 expression (Relative mRNA expression/Actin)", "setting": "[5]; HuH-7 cells, increasing concentrations of inhibitor alone, 18 hours", "result": "increased CYP7A1 expression"}]}, {"molecule": "COCCNc1cc(NC(=O)N2CCCc3cc(CN4CCN(C)CC4=O)c(C=O)nc32)ncc1C#N", "note": "[FGF-401, roblitinib]", "values": [{"measurement": "levels of serum C4", "setting": "[6]", "result": "increases in levels of serum C4"}, {"measurement": "bile acids level in gall bladder (fold change over control)", "setting": "[7]", "result": "increased bile acids level"}, {"measurement": "bile acids level in liver (fold change over control)", "setting": "[7]", "result": "increased bile acids level"}, {"measurement": "bile acids level in plasma (fold change over control)", "setting": "[7]", "result": "increased bile acids level"}, {"measurement": "CYP7A1 expression (Relative mRNA expression/Actin)", "setting": "[2]", "result": "increased CYP7A1 expression"}, {"measurement": "serum C4 levels", "setting": "[4]", "result": "significantly raised levels"}, {"measurement": "CYP7A1 expression (Relative mRNA expression/Actin)", "setting": "[5]", "result": "increased CYP7A1 expression"}]}]}
